This assay addresses T1, recombinant IL4I1 (Homo sapiens, UniProt Q96RQ9).
T1 construct: purchased R&D Systems 5684-AO-020
T1 sequence (Q96RQ9 22-567): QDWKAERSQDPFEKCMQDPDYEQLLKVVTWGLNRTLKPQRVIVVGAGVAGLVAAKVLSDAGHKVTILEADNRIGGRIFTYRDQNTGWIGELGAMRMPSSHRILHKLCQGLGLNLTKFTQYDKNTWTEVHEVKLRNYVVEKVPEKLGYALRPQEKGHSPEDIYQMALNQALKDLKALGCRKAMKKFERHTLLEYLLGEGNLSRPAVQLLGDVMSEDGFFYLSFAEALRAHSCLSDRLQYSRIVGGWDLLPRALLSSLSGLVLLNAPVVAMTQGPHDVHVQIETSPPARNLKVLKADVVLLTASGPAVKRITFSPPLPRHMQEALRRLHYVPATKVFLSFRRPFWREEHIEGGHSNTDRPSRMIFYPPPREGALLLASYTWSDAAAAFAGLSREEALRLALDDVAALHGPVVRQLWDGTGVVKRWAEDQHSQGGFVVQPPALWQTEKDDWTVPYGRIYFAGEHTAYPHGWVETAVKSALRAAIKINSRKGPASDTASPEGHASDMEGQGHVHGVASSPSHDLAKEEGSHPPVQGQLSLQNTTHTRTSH
The assay is described as follows: IL4I1 Enzymatic Assay (Amplex Red/HRP coupled H2O2 detection). The format is biochemical. The settings on record: 240 min; four-hour pre-incubation with compound; 1 nM IL4I1, 1 mM each Phe/Tyr/Trp; ten-point titration; fluorescence readout; read-out: Potency EC50 (nM) (240 min). Here is the method: Interleukin 4 inducible protein 1 (IL4I1) is an L-amino oxidase that catalyzes the oxidation of aromatic residues (Phe, Trp and Tyr): L-amino acid+H2O+O2→2-oxo acid+NH3+H2O2. Equal molar of H2O2 and the corresponding alpha-ketoacid are produced when IL4I1 and substrate are added. In this assay, the hydrogen peroxide generated by IL4I1 is then detected through a coupled reaction with Amplex Red (10-acetyl-3,7-dihydroxyphenoxazine) and […] (HRP) to produce Resorufin product that could be detected in the form of fluorescence signals. The assessment of the inhibitory effect of small molecules (EC50) on IL4I1 is measured by the effectiveness of the compounds to inhibit the production of H2O2.
Using this assay, the potency (EC50) of each compound was determined from a ten-point (1:3 serial dilution) titration curve using the following outlined procedure. To each well of a black flat-bottom Greiner (Cat #781076) 384 well-plate, 25 nL of compound (0.1% DMSO in final assay volume of 25 μL) was dispensed, followed by the addition of 12.5 μL of 1x assay buffer (50 mM Hepes 7.0 and 0.005% Tween20 (Sigma, Cat #P8341; low peroxide grade)) containing 2 nM of recombinant IL4I1 (R&D Systems, Cat #5684-AO-020). Plates were placed in an ambient temperature humidified chamber for a four-hour pre-incubation with compound. Subsequently, each reaction was initiated by the addition of 12.5 μL 1x assay buffer containing 2 mM of each aromatic amino acids (Phe/Tyr/Trp), 0.1 mM Amplex Red and 2 U/mL of HRP. The final reaction in each well of 25 μL consists of 1 nM of IL411, 1 mM of each residues (Phe, Tyr and Trp), 0.05 mM Amplex Red and 1 U/mL of HRP. It should be noted that the concentrations of Amplex Red and HRP used here are in excess such that the conversion of H2O2 to Resorufin product occurs instantaneously and non-rate limiting. Reactions were allowed to proceed for 120 minutes followed by fluorescence readout on a Spectramax with the following set parameters: 544 nm excitation/590 nm emission, 570 nm cutoff (EnVision is an alternative reader). Dose-response curves were generated by plotting percent effect (% product conversion; Y-axis) vs. Log10 compound concentrations (X-axis). EC50 values were calculated using a non-linear regression, four-parameters sigmoidal dose-response model and are shown in Table 16.
Broadly, the EC50 is the midpoint of the concentration-response curve. Take `O=C1NCc2ccc(Cn3c(=O)[nH]c4ccccc43)cc21` [Example 10, 1-[(3-oxo-2,3-dihydro-1H-isoindol-5-yl)methyl]-1,3-dihydro-2H-benzimidazol-2-one]: the EC50 stood at 22 nM.

With `CC(=O)NCc1ccc(Cn2c(=O)[nH]c3ccccc32)cc1` [Example 11, N-(4-((2-oxo-2,3-dihydro-1H-benzo[d]imidazol-1-yl)methyl)benzyl)acetamide], the EC50 turned out to be 6 nM. As for `CS(=O)(=O)NCc1ccc(Cn2c(=O)[nH]c3ccccc32)cc1` [Example 12, N-(4-((2-oxo-2,3-dihydro-1H-benzo[d]imidazol-1-yl)methyl)benzyl)methanesulfonamide], the figure is 8 nM. As for `CNC(=O)c1csc(Cn2c(=O)[nH]c3ccccc32)c1` [Example 13, N-methyl-5-((2-oxo-2,3-dihydro-1H-benzo[d]imidazol-1-yl)methyl)thiophene-3-carboxamide], the EC50 was determined as 6 nM. For `O=C(NC1CC1)c1ccc(Cn2c(=O)[nH]c3ccccc32)s1` [Example 14], the EC50 amounted to 2 nM. Regarding `CC(=O)N[C@H](C)c1ccc(Cn2c(=O)[nH]c3ccccc32)cc1` [Example 15, (R)—N-(1-(4-((2-oxo-2,3-dihydro-1H-benzo[d]imidazol-1-yl)methyl)phenyl)ethyl)acetamide], the EC50 was determined as 19 nM. Consider `CC[C@@H](NC(C)=O)c1ccc(Cn2c(=O)[nH]c3ccccc32)cc1` [Example 16, (R)-N-(1-(4-((2-oxo-2,3-dihydro-1H-benzo[d]imidazol-1-yl)methyl)phenyl)propyl)acetamide], for which the EC50 was found to be 24 nM. As for `CNC(=O)c1cc(Cn2c(=O)[nH]c3ccccc32)ccc1OC` [Example 17, 2-methoxy-N-methyl-5-((2-oxo-2,3-dihydro-1H-benzo[d]imidazol-1-yl)methyl)benzamide], the figure is 12 nM; as for `O=C1CCCN1Cc1ccc(Cn2c(=O)[nH]c3ccccc32)cc1Cl` [Example 18, 1-(3-chloro-4-((2-oxopyrrolidin-1-yl)methyl)benzyl)-1,3-dihydro-2H-benzo[d]imidazol-2-one], 8 nM. Take `O=C1CCCN1Cc1ccc(Cn2c(=O)[nH]c3ccccc32)cc1I` [Example 19, 1-(3-iodo-4-((2-oxopyrrolidin-1-yl)methyl)benzyl)-1,3-dihydro-2H-benzo[d]imidazol-2-one]: the 50% effective concentration (EC50) was 14 nM. In the case of `O=c1[nH]c2ccccc2n1Cc1ccc(CN2CCOCS2(=O)=O)cc1` [Example 20, 1-(4-((3,3-dioxido-1,3,4-oxathiazinan-4-yl)methyl)benzyl)-1,3-dihydro-2H-benzo[d]imidazol-2-one] it was 7 nM; in that of `CN(Cc1ccc(Cn2c(=O)[nH]c3ccccc32)cc1)S(C)(=O)=O` [Example 21, N-methyl-N-({4-[(2-oxo-2,3-dihydro-1H-benzimidazol-1-yl)methyl]phenyl}methyl) methanesulfonamide], 8 nM; in that of `O=C1CC2(CC2)CN1Cc1ccc(Cn2c(=O)[nH]c3ccccc32)cc1` [Example 22, 1-({4-[(6-oxo-5-azaspiro[2.4]heptan-5-yl)methyl]phenyl}methyl)-1,3-dihydro-2H-benzimidazol-2-one], 8 nM. Turning to `O=C1CCCN1Cc1c(F)cc(Cn2c(=O)[nH]c3ccccc32)cc1F` [Example 23, 1-({3,5-difluoro-4-[(2-oxopyrrolidin-1-yl)methyl]phenyl}methyl)-1,3-dihydro-2H-benzimidazol-2-one], the EC50 worked out at 18 nM.

In the case of `N#Cc1cc(Cn2c(=O)[nH]c3ccccc32)ccc1CN1CCCC1=O` [Example 24, 5-((2-oxo-2,3-dihydro-1H-benzo[d]imidazol-1-yl)methyl)-2-((2-oxopyrrolidin-1-yl)methyl) benzonitrile], the EC50 came out at 24 nM. As to `O=C1CCCN1Cc1ncc(Cn2c(=O)[nH]c3ccccc32)cc1Cl` [Example 25, 1-((5-chloro-6-((2-oxopyrrolidin-1-yl)methyl)pyridin-3-yl)methyl)-1,3-dihydro-2H-benzo[d]imidazol-2-one], the EC50 was determined as 47 nM.

Values taken from patent US12454525B2, “IL4I1 inhibitors and methods of use” (Merck Sharp & Dohme LLC, priority 2020, dated 2025).
